Measurements taken from patent US10934310B2, “Inhibitors of Bruton's tyrosine kinase and method of their use” (JANSSEN PHARMACEUTICA NV, priority 2015, dated 2021).

Target: unphosphorylated-BTK kinase domain (UP-BTK), GST-tagged human BTK (389-659aa) (Homo sapiens (Human), UniProt Q06187)
Assay: BTK Kinase Lanthascreen Binding Assay
Details: for BTK_I_binding pIC50: pIC50 = negative log of the IC50 in molar; for IC50: read-out: BTK_I_binding pIC50 (converted)
Procedure: BTK Kinase Lanthascreen Binding Assay:
A BTK kinase lanthascreen binding assay monitors compound binding to unphosphorylated-BTK kinase domain (UP-BTK), by competing with a fluorescent labeled tracer. […] Data were analyzed using Xlfit™ version 5.3 from ID Business Solutions (Guildford), Microsoft Excel add-in. pIC50 refers to the negative log of the IC50 in molar.

[1] = compound, 50 nM Tracer 236, 2 nM anti-GST antibody, 60 minutes
[2] = Lanthascreen binding, 60 minutes incubation

unphosphorylated-BTK kinase domain (UP-BTK), GST-tagged human BTK (389-659aa), sequence (Q06187 389-659): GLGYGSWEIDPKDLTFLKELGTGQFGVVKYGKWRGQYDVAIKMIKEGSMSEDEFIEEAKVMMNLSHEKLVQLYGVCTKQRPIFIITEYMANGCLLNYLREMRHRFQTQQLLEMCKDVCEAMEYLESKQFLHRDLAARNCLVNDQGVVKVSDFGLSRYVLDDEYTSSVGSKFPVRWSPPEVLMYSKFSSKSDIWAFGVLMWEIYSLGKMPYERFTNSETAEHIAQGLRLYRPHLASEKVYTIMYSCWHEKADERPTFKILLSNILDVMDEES

Row | Compound | BTK_I_binding pIC50 [1] | IC50 | other results
1 | CNC1CC[C@H](NC(=O)c2sc3nccc4c3c2NC(=O)N4c2ccc(Oc3ccccc3)cc2C)C1 (mixture of isomers) [Example 80, 5-(2-Methyl-4-phenoxyphenyl)-N-((1S)-3-(methylamino)cyclopentyl)-4-oxo-4,5-dihydro-3H-1-thia-3,5,8-triazaacenaphthylene-2-carboxamide] | 6.42 |  | 
2 | Cc1cc(Oc2ccccc2)ccc1N1C(=O)Nc2c(C(=O)NC3CCCCC3O)sc3nccc1c23 (racemic) [Example 27, N-((1RS,2RS)-2-Hydroxycyclohexyl)-5-(2-methyl-4-phenoxyphenyl)-4-oxo-4,5-dihydro-3H-1-thia-3,5,8-triazaacenaphthylene-2-carboxamide] |  | 110 nM | 
3 | Cc1cc(Oc2ccccc2)ccc1N1C(=O)Nc2c(C(=O)N[C@H]3CCCC[C@@H]3O)sc3nccc1c23 (racemic) [Example 36, N-((1RS,2RS)-2-Hydroxycyclohexyl)-5-(2-methyl-4-phenoxyphenyl)-4-oxo-4,5-dihydro-3H-1-thia-3,5,8-triazaacenaphthylene-2-carboxamide] |  | 191 nM | 
4 | N[C@H]1CC[C@@H](NC(=O)c2sc3nccc4c3c2NC(=O)N4c2ccc(Oc3ccccc3)cc2)C1 (racemic) [Example 96, N-(rac-(1,3-cis)-3-Aminocyclopentyl)-4-oxo-5-(4-phenoxyphenyl)-4,5-dihydro-3H-1-thia-3,5,8-triazaacenaphthylene-2-carboxamide] |  | 77.6 nM | 
5 | C=CC(=O)NC1CCC(NC(=O)c2sc3nccc4c3c2NC(=O)N4c2ccc(Oc3ccccc3)cc2)C1 (racemic) [Example 109, N-((1RS,3RS)-3-Acrylamidocyclopentyl)-4-oxo-5-(4-phenoxyphenyl)-4,5-dihydro-3H-1-thia-3,5,8-triazaacenaphthylene-2-carboxamide] |  | 14.1 nM | 
6 | N[C@@H]1CC[C@@H](NC(=O)c2sc3nccc4c3c2NC(=O)N4c2ccc(Oc3ccccc3)cc2)C1 (racemic) [Example 147, trans-N-((1RS,3RS)-3-Aminocyclopentyl)-4-oxo-5-(4-phenoxyphenyl)-4,5-dihydro-3H-1-thia-3,5,8-triazaacenaphthylene-2-carboxamide] |  | 234 nM | 
7 | C=CC(=O)N[C@@H]1CC[C@@H](NC(=O)c2sc3nccc4c3c2NC(=O)N4c2ccc(Oc3ccccc3)nc2)C1 (racemic) [Example 188, N-((1RS,3RS)-3-Acrylamidocyclopentyl)-4-oxo-5-(6-phenoxypyridin-3-yl)-4,5-dihydro-3H-1-thia-3,5,8-triazaacenaphthylene-2-carboxamide] |  | 77.6 nM | 
8 | C=CC(=O)NC1CCC(NC(=O)c2sc3nccc4c3c2NC(=O)N4c2ccc(Oc3ccccc3)cn2)C1 (racemic) [Example 214, N-((1RS,3RS)-3-Acrylamidocyclopentyl)-4-oxo-5-(5-phenoxypyridin-2-yl)-4,5-dihydro-3H-1-thia-3,5,8-triazaacenaphthylene-2-carboxamide] |  | 14.1 nM | 
9 | C=CC(=O)N[C@@H]1CCC[C@@H](NC(=O)c2sc3nccc4c3c2NC(=O)N4c2ccc(Oc3ccccc3)cn2)C1 (racemic) [Example 216, N-((1RS,3RS)-3-Acrylamidocyclohexyl)-4-oxo-5-(5-phenoxypyridin-2-yl)-4,5-dihydro-3H-1-thia-3,5,8-triazaacenaphthylene-2-carboxamide] |  | 36.3 nM | 
10 | N[C@@H]1CC[C@H](NC(=O)c2sc3nccc4c3c2NC(=O)N4c2ccc(Oc3ccccc3)nc2)C1 (racemic) [Example 289, racemic cis N-((1RS,3RS)-3-Aminocyclopentyl)-4-oxo-5-(6-phenoxypyridin-3-yl)-4,5-dihydro-3H-1-thia-3,5,8-triazaacenaphthylene-2-carboxamide] |  | 1700 nM | 
11 | N[C@H]1CC[C@H](NC(=O)c2sc3nccc4c3c2NC(=O)N4c2ccc(Oc3ccccc3)nc2)C1 (racemic) [Example 290, racemic trans N-((1RS,3RS)-3-Aminocyclopentyl)-4-oxo-5-(6-phenoxypyridin-3-yl)-4,5-dihydro-3H-1-thia-3,5,8-triazaacenaphthylene-2-carboxamide] |  | 2240 nM | 
12 | Cc1cc(Oc2ccccc2)ccc1N1C(=O)Nc2c(C(=O)N[C@@H]3CCCC[C@@H]3N(C)C)sc3nccc1c23 (relative stereo) [Example 7, N-((1R,2S)-2-(Dimethylamino)cyclohexyl)-5-(*S)-(2-methyl-4-phenoxyphenyl)-4-oxo-4,5-dihydro-3H-1-thia-3,5,8-triazaacenaphthylene-2-carboxamide] | 7.31 |  | 
13 | CC(=O)N[C@@H]1CC[C@H](NC(=O)c2sc3nccc4c3c2NC(=O)N4c2ccc(Oc3ccccc3)cc2C)C1 (relative stereo) [Example 88, N-((1S,3R)-3-Acetamidocyclopentyl)-5-(*S)-(2-methyl-4-phenoxyphenyl)-4-oxo-4,5-dihydro-3H-1-thia-3,5,8-triazaacenaphthylene-2-carboxamide] | 7.89 |  | 
14 | CNCC(=O)N[C@H]1CCC[C@H](NC(=O)c2sc3nccc4c3c2NC(=O)N4c2ccc(Oc3ccccc3)cc2C)C1 (relative stereo) [Example 250, 5-(*S)-(2-Methyl-4-phenoxyphenyl)-N-((1R,3S)-3-(2-(methylamino)acetamido)cyclohexyl)-4-oxo-4,5-dihydro-3H-1-thia-3,5,8-triazaacenaphthylene-2-carboxamide] | 6.75 |  | 
15 | C=CC(=O)N[C@@H]1CCC[C@@H](NC(=O)c2sc3nccc4c3c2NC(=O)N4c2ccc(Oc3ccccc3)cn2)C1 (relative stereo) [Example 344, N-((1*R,3*R)-3-Acrylamidocyclohexyl)-4-oxo-5-(5-phenoxypyridin-2-yl)-4,5-dihydro-3H-1-thia-3,5,8-triazaacenaphthylene-2-carboxamide] |  |  | BTK_I_binding pIC50 [2]: 6.11
16 | CCC(=O)N[C@H]1CCCC[C@H]1NC(=O)c1sc2nccc3c2c1NC(=O)N3c1cnc(Oc2ccccc2)cc1C (relative stereo) [Example 381, 5-(*S)-(4-Methyl-6-phenoxypyridin-3-yl)-4-oxo-N-((1R,2S)-2-propionamidocyclohexyl)-4,5-dihydro-3H-1-thia-3,5,8-triazaacenaphthylene-2-carboxamide] |  |  | BTK_I_binding pIC50 [2]: 6.75
17 | C=CC(=O)N[C@H]1CC[C@@H](NC(=O)c2sc3nccc4c3c2NC(=O)N4c2ccc(Oc3ccccc3)cc2C)CC1 (single isomer, unassigned) [Example 1, N-((1S,4S)-4-Acrylamidocyclohexyl)-5-(*S)-(2-methyl-4-phenoxyphenyl)-4-oxo-4,5-dihydro-3H-1-thia-3,5,8-triazaacenaphthylene-2-carboxamide] | 7.61 |  | 
18 | Cc1cc(Oc2ccccc2)ccc1N1C(=O)Nc2c(C(=O)N[C@@H]3CCCC[C@@H]3N)sc3nccc1c23 (single isomer, unassigned) [Example 5, N-((1R,2S)-2-Aminocyclohexyl)-5-(*S)-(2-methyl-4-phenoxyphenyl)-4-oxo-4,5-dihydro-3H-1-thia-3,5,8-triazaacenaphthylene-2-carboxamide] | 7.69 |  | 
19 | Cc1cc(Oc2ccccc2)ccc1N1C(=O)Nc2c(C(=O)N[C@@H]3CCC[C@@H]3O)sc3nccc1c23 (single isomer, unassigned) [Example 8, N-((1R,2S)-2-Hydroxycyclopentyl)-5-(*S)-(2-methyl-4-phenoxyphenyl)-4-oxo-4,5-dihydro-3H-1-thia-3,5,8-triazaacenaphthylene-2-carboxamide] | 7.95 |  | 
20 | C=CC(=O)N[C@H]1CCC[C@@H]1NC(=O)c1sc2nccc3c2c1NC(=O)N3c1ccc(Oc2ccccc2)cc1C (single isomer, unassigned) [Example 56, N-((1S,2S)-2-Acrylamidocyclopentyl)-5-(*R)-(2-methyl-4-phenoxyphenyl)-4-oxo-4,5-dihydro-3H-1-thia-3,5,8-triazaacenaphthylene-2-carboxamide] | 5.77 |  | 
21 | Cc1cc(Oc2ccccc2)ccc1N1C(=O)Nc2c(C(=O)N[C@@H]3CCC[C@H]3O)sc3nccc1c23 (single isomer, unassigned) [Example 61, N-((1R,2R)-2-Hydroxycyclopentyl)-5-(*R)-(2-methyl-4-phenoxyphenyl)-4-oxo-4,5-dihydro-3H-1-thia-3,5,8-triazaacenaphthylene-2-carboxamide] | 5.36 |  | 
22 | CC(=O)N[C@@H]1CCC[C@H]1NC(=O)c1sc2nccc3c2c1NC(=O)N3c1ccc(Oc2ccccc2)cc1C (single isomer, unassigned) [Example 67, N-((1R,2R)-2-Acetamidocyclopentyl)-5-(*S)-(2-methyl-4-phenoxyphenyl)-4-oxo-4,5-dihydro-3H-1-thia-3,5,8-triazaacenaphthylene-2-carboxamide] | 7.41 |  | 
23 | Cc1cc(Oc2ccccc2)ccc1N1C(=O)Nc2c(C(=O)N[C@H]3CC[C@@H](O)CC3)sc3nccc1c23 (single isomer, unassigned) [Example 83, N-((1S,4S)-4-Hydroxycyclohexyl)-5-(*S)-(2-methyl-4-phenoxyphenyl)-4-oxo-4,5-dihydro-3H-1-thia-3,5,8-triazaacenaphthylene-2-carboxamide] | 7.60 |  | 
24 | Cc1cc(Oc2ccccc2)ccc1N1C(=O)Nc2c(C(=O)N[C@H]3CC[C@@H](O)CC3)sc3nccc1c23 (single isomer, unassigned) [Example 84, N-((1S,4S)-4-Hydroxycyclohexyl)-5-(*R)-(2-methyl-4-phenoxyphenyl)-4-oxo-4,5-dihydro-3H-1-thia-3,5,8-triazaacenaphthylene-2-carboxamide] | 6.21 |  | 
